Measurements as given in publication PMC6409085, “Three odorant-binding proteins are involved in the behavioral response of Sogatella furcifera to rice plant volatiles” (PeerJ, 2019).
pIC50: −log10 of the molar value. “And” between values parts separate entries of the source, which are not always exact repeats. Equal values may be shown once.

Key:
SfurOBP1 = SfurOBP1 (Sogatella furcifera, UniProt V5T8N5); assay: biochemical; assay type: binding; conditions: for Fluorescence competitive binding assay, fluorescence intensity: OBP1, three replicate columns
In short: (§1)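 Fluorescence competitive binding with 1-NPN as reporter: 2.0 µM protein and 2.0 µM 1-NPN in 50 mM Tris-HCl pH 7.4, odorant added at 2–20 µM final. Excitation 337 nm, emission 390–490 nm read 2 min after addition, triplicates. Ki = IC50/(1 + [1-NPN]/K1-NPN).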

SfurOBP11 = SfurOBP11 (Sogatella furcifera, UniProt V5T6E3); assay: biochemical; assay type: binding
In short: as §1

SfurOBP2 = SfurOBP2 (Sogatella furcifera, UniProt V5T759); assay: biochemical; assay type: binding
In short: as §1

SfurOBP3 = SfurOBP3 (Sogatella furcifera, UniProt V5T818); assay: biochemical; assay type: binding; conditions: for Fluorescence competitive binding assay, fluorescence intensity: OBP3, three replicate columns
In short: as §1

S. furcifera adults = assay: Y-tube olfactometer behavioral trials; assay type: in vivo, Sogatella furcifera; conditions: odorant 50 µL/L vs hexane; adults
In short: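 Single S. furcifera adults (2 days post-emergence, starved 0.5 h) chose between odorant (100 µL of 50 µL/L on filter paper) and hexane control in a glass Y-tube, charcoal-filtered humidified air 300 mL/min per arm, 25 ± 1 °C, 50% RH. Choice scored if insect passed half an arm and stayed >1 min within 10 min; 45 insects per compound, chi-squared test.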

Chain of SfurOBP3 (V5T818 entry or part of it): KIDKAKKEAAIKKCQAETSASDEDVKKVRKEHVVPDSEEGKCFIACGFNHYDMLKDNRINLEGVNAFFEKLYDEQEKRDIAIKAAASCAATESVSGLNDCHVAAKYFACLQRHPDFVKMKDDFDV
Chain of SfurOBP1 (V5T8N5 entry or part of it): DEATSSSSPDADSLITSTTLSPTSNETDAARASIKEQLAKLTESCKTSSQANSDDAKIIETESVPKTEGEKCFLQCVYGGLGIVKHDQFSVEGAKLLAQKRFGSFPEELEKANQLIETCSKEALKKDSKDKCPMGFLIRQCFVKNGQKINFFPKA
Chain of SfurOBP2 (V5T759 entry or part of it): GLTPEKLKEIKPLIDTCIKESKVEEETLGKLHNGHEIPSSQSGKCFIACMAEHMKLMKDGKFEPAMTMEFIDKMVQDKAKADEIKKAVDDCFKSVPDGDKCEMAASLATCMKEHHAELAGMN
Chain of SfurOBP11 (V5T6E3 entry or part of it): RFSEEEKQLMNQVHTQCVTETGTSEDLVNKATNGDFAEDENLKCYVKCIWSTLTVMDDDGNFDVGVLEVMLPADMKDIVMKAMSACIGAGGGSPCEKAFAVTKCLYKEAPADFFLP

2-heptanonol
Fluorescence competitive binding assay, fluorescence intensity (SfurOBP1; ligand concentration 2 (μM)): 5887 and 5646 and 5767 | Fluorescence competitive binding assay, fluorescence intensity (SfurOBP1; ligand concentration 4 (μM)): 7288 and 7577 and 6996 | Fluorescence competitive binding assay, fluorescence intensity (SfurOBP1; ligand concentration 6 (μM)): 5995 and 5950 and 6027 | Fluorescence competitive binding assay, fluorescence intensity (SfurOBP1; ligand concentration 8 (μM)): 7072 and 6140 and 5704 | Fluorescence competitive binding assay, fluorescence intensity (SfurOBP1; ligand concentration 10 (μM)): 8690 and 6215 and 5653 | Fluorescence competitive binding assay, fluorescence intensity (SfurOBP1; ligand concentration 12 (μM)): 7048 and 7677 and 6537 | Fluorescence competitive binding assay, fluorescence intensity (SfurOBP1; ligand concentration 14 (μM)): 6232 and 8602 and 7115 | Fluorescence competitive binding assay, fluorescence intensity (SfurOBP1; ligand concentration 16 (μM)): 5533 and 5298 and 5778 | Fluorescence competitive binding assay, fluorescence intensity (SfurOBP1; ligand concentration 18 (μM)): 5895 and 6061 and 6136 | Fluorescence competitive binding assay, fluorescence intensity (SfurOBP1; ligand concentration 20 (μM)): 5784 and 5580 and 5212 | pIC50 (SfurOBP1; SfurOBP1, protein and 1-NPN both 2.0 µM, competitor 2-20 µM, read-out: IC50): < 4.70 | pIC50 (SfurOBP11; SfurOBP11, protein and 1-NPN both 2.0 µM, competitor 2-20 µM, read-out: IC50): < 4.70 | Fluorescence intensity, fluorescence competitive binding assay, OBP11 (SfurOBP11; ligand concentration 2, replicate 1): 32214 | Fluorescence intensity, fluorescence competitive binding assay, OBP11 (SfurOBP11; ligand concentration 2, replicate 2): 33277 | Fluorescence intensity, fluorescence competitive binding assay, OBP11 (SfurOBP11; ligand concentration 2, replicate 3): 35354 | Fluorescence intensity, fluorescence competitive binding assay, OBP11 (SfurOBP11; ligand concentration 4, replicate 1): 33125 | Fluorescence intensity, fluorescence competitive binding assay, OBP11 (SfurOBP11; ligand concentration 4, replicate 2): 35054 | Fluorescence intensity, fluorescence competitive binding assay, OBP11 (SfurOBP11; ligand concentration 4, replicate 3): 33696 | Fluorescence intensity, fluorescence competitive binding assay, OBP11 (SfurOBP11; ligand concentration 6, replicate 1): 31772 | Fluorescence intensity, fluorescence competitive binding assay, OBP11 (SfurOBP11; ligand concentration 6, replicate 2): 31091 | Fluorescence intensity, fluorescence competitive binding assay, OBP11 (SfurOBP11; ligand concentration 6, replicate 3): 33532 | Fluorescence intensity, fluorescence competitive binding assay, OBP11 (SfurOBP11; ligand concentration 8, replicate 1): 28812 | Fluorescence intensity, fluorescence competitive binding assay, OBP11 (SfurOBP11; ligand concentration 8, replicate 2): 31104 | Fluorescence intensity, fluorescence competitive binding assay, OBP11 (SfurOBP11; ligand concentration 8, replicate 3): 31825 | Fluorescence intensity, fluorescence competitive binding assay, OBP11 (SfurOBP11; ligand concentration 10, replicate 1): 28521 | Fluorescence intensity, fluorescence competitive binding assay, OBP11 (SfurOBP11; ligand concentration 10, replicate 2): 30054 | Fluorescence intensity, fluorescence competitive binding assay, OBP11 (SfurOBP11; ligand concentration 10, replicate 3): 29747 | Fluorescence intensity, fluorescence competitive binding assay, OBP11 (SfurOBP11; ligand concentration 12, replicate 1): 26176 | Fluorescence intensity, fluorescence competitive binding assay, OBP11 (SfurOBP11; ligand concentration 12, replicate 2): 26507 | Fluorescence intensity, fluorescence competitive binding assay, OBP11 (SfurOBP11; ligand concentration 12, replicate 3): 26325 | Fluorescence intensity, fluorescence competitive binding assay, OBP11 (SfurOBP11; ligand concentration 14, replicate 1): 24809 | Fluorescence intensity, fluorescence competitive binding assay, OBP11 (SfurOBP11; ligand concentration 14, replicate 2): 27546 | Fluorescence intensity, fluorescence competitive binding assay, OBP11 (SfurOBP11; ligand concentration 14, replicate 3): 28489 | Fluorescence intensity, fluorescence competitive binding assay, OBP11 (SfurOBP11; ligand concentration 16, replicate 1): 22169 | Fluorescence intensity, fluorescence competitive binding assay, OBP11 (SfurOBP11; ligand concentration 16, replicate 2): 21457 | Fluorescence intensity, fluorescence competitive binding assay, OBP11 (SfurOBP11; ligand concentration 16, replicate 3): 24839 | Fluorescence intensity, fluorescence competitive binding assay, OBP11 (SfurOBP11; ligand concentration 18, replicate 1): 29523 | Fluorescence intensity, fluorescence competitive binding assay, OBP11 (SfurOBP11; ligand concentration 18, replicate 2): 28673 | Fluorescence intensity, fluorescence competitive binding assay, OBP11 (SfurOBP11; ligand concentration 18, replicate 3): 27420 | Fluorescence intensity, fluorescence competitive binding assay, OBP11 (SfurOBP11; ligand concentration 20, replicate 1): 25385 | Fluorescence intensity, fluorescence competitive binding assay, OBP11 (SfurOBP11; ligand concentration 20, replicate 2): 25884 | Fluorescence intensity, fluorescence competitive binding assay, OBP11 (SfurOBP11; ligand concentration 20, replicate 3): 25605 | pIC50 (SfurOBP2; SfurOBP2, protein and 1-NPN both 2.0 µM, competitor 2-20 µM, read-out: IC50): < 4.70 | Fluorescence competitive binding assay, OBP2 (raw fluorescence reading) (SfurOBP2; ligand concentration 2 (unit not given), replicate column 1 of 3): 18612 | Fluorescence competitive binding assay, OBP2 (raw fluorescence reading) (SfurOBP2; ligand concentration 2 (unit not given), replicate column 2 of 3): 18747 | Fluorescence competitive binding assay, OBP2 (raw fluorescence reading) (SfurOBP2; ligand concentration 2 (unit not given), replicate column 3 of 3): 19681 | Fluorescence competitive binding assay, OBP2 (raw fluorescence reading) (SfurOBP2; ligand concentration 4 (unit not given), replicate column 1 of 3): 19302 | Fluorescence competitive binding assay, OBP2 (raw fluorescence reading) (SfurOBP2; ligand concentration 4 (unit not given), replicate column 2 of 3): 19993 | Fluorescence competitive binding assay, OBP2 (raw fluorescence reading) (SfurOBP2; ligand concentration 4 (unit not given), replicate column 3 of 3): 20683 | Fluorescence competitive binding assay, OBP2 (raw fluorescence reading) (SfurOBP2; ligand concentration 6 (unit not given), replicate column 1 of 3): 18811 | Fluorescence competitive binding assay, OBP2 (raw fluorescence reading) (SfurOBP2; ligand concentration 6 (unit not given), replicate column 2 of 3): 18736 | Fluorescence competitive binding assay, OBP2 (raw fluorescence reading) (SfurOBP2; ligand concentration 6 (unit not given), replicate column 3 of 3): 18774 | Fluorescence competitive binding assay, OBP2 (raw fluorescence reading) (SfurOBP2; ligand concentration 8 (unit not given), replicate column 1 of 3): 16468 | Fluorescence competitive binding assay, OBP2 (raw fluorescence reading) (SfurOBP2; ligand concentration 8 (unit not given), replicate column 2 of 3): 16720 | Fluorescence competitive binding assay, OBP2 (raw fluorescence reading) (SfurOBP2; ligand concentration 8 (unit not given), replicate column 3 of 3): 16981 | Fluorescence competitive binding assay, OBP2 (raw fluorescence reading) (SfurOBP2; ligand concentration 10 (unit not given), replicate column 1 of 3): 16986 | Fluorescence competitive binding assay, OBP2 (raw fluorescence reading) (SfurOBP2; ligand concentration 10 (unit not given), replicate column 2 of 3): 17111 | Fluorescence competitive binding assay, OBP2 (raw fluorescence reading) (SfurOBP2; ligand concentration 10 (unit not given), replicate column 3 of 3): 16240 | Fluorescence competitive binding assay, OBP2 (raw fluorescence reading) (SfurOBP2; ligand concentration 12 (unit not given), replicate column 1 of 3): 16820 | Fluorescence competitive binding assay, OBP2 (raw fluorescence reading) (SfurOBP2; ligand concentration 12 (unit not given), replicate column 2 of 3): 17596 | Fluorescence competitive binding assay, OBP2 (raw fluorescence reading) (SfurOBP2; ligand concentration 12 (unit not given), replicate column 3 of 3): 18083 | Fluorescence competitive binding assay, OBP2 (raw fluorescence reading) (SfurOBP2; ligand concentration 14 (unit not given), replicate column 1 of 3): 17387 | Fluorescence competitive binding assay, OBP2 (raw fluorescence reading) (SfurOBP2; ligand concentration 14 (unit not given), replicate column 2 of 3): 16676 | Fluorescence competitive binding assay, OBP2 (raw fluorescence reading) (SfurOBP2; ligand concentration 14 (unit not given), replicate column 3 of 3): 18097 | Fluorescence competitive binding assay, OBP2 (raw fluorescence reading) (SfurOBP2; ligand concentration 16 (unit not given), replicate column 1 of 3): 16472 | Fluorescence competitive binding assay, OBP2 (raw fluorescence reading) (SfurOBP2; ligand concentration 16 (unit not given), replicate column 2 of 3): 16454 | Fluorescence competitive binding assay, OBP2 (raw fluorescence reading) (SfurOBP2; ligand concentration 16 (unit not given), replicate column 3 of 3): 17500 | Fluorescence competitive binding assay, OBP2 (raw fluorescence reading) (SfurOBP2; ligand concentration 18 (unit not given), replicate column 1 of 3): 16574 | Fluorescence competitive binding assay, OBP2 (raw fluorescence reading) (SfurOBP2; ligand concentration 18 (unit not given), replicate column 2 of 3): 16302 | Fluorescence competitive binding assay, OBP2 (raw fluorescence reading) (SfurOBP2; ligand concentration 18 (unit not given), replicate column 3 of 3): 16787 | Fluorescence competitive binding assay, OBP2 (raw fluorescence reading) (SfurOBP2; ligand concentration 20 (unit not given), replicate column 1 of 3): 15630 | Fluorescence competitive binding assay, OBP2 (raw fluorescence reading) (SfurOBP2; ligand concentration 20 (unit not given), replicate column 2 of 3): 15665 | Fluorescence competitive binding assay, OBP2 (raw fluorescence reading) (SfurOBP2; ligand concentration 20 (unit not given), replicate column 3 of 3): 15648 | Fluorescence competitive binding assay, fluorescence intensity (SfurOBP3; ligand concentration 2): 45232 and 45869 and 44594 | Fluorescence competitive binding assay, fluorescence intensity (SfurOBP3; ligand concentration 4): 45996 and 44453 and 43020 | Fluorescence competitive binding assay, fluorescence intensity (SfurOBP3; ligand concentration 6): 47391 and 47743 and 47567 | Fluorescence competitive binding assay, fluorescence intensity (SfurOBP3; ligand concentration 8): 48801 and 50407 and 49604 | Fluorescence competitive binding assay, fluorescence intensity (SfurOBP3; ligand concentration 10): 51610 and 62768 and 47878 | Fluorescence competitive binding assay, fluorescence intensity (SfurOBP3; ligand concentration 12): 54498 and 52011 and 51877 | Fluorescence competitive binding assay, fluorescence intensity (SfurOBP3; ligand concentration 14): 42842 (2×) and 42142 | Fluorescence competitive binding assay, fluorescence intensity (SfurOBP3; ligand concentration 16): 41166 and 44357 and 42754 | Fluorescence competitive binding assay, fluorescence intensity (SfurOBP3; ligand concentration 18): 42621 and 43724 and 41536 | Fluorescence competitive binding assay, fluorescence intensity (SfurOBP3; ligand concentration 20): 45786 and 37456 and 39383 | pIC50 (SfurOBP3; SfurOBP3, protein and 1-NPN both 2.0 µM, competitor 2-20 µM, read-out: IC50): < 4.70 | number of insects choosing hexane arm (S. furcifera adults): 13 | number of insects choosing volatilies arm (S. furcifera adults): 16 | number of insects failed (no choice) (S. furcifera adults): 13
